Laboratory results published in publication PMC8558502 (The Biochemical journal, 2020).

Experiments:
[1] = tested on: R. delemar tyrosinase enzyme activity; assay type: cell-based, Rhizopus delemar; conditions: 10 μg/ml, 3 days, protein extract with 10 mM L-DOPA
[2] = tested on: Rhizopus delemar melanin production; conditions: cited from earlier work
Rhizopus delemar = assay: Growth; assay type: cell-based; conditions: kojic acid 50 μg/ml, 3 days

| SMILES | Inhibitory effect on melanin biosynthesis (tyrosinase activity) of R. delemar [1] | Reduction of melanin production from R. delemar [2] | Effect on growth of fungal hyphae (Rhizopus delemar) |
| --- | --- | --- | --- |
| CC(C)c1ccc(C=O)cc1 [Cuminaldehyde, cuminaldehyde] | highest | causes reduction of melanin production | – |
| O=c1cc(CO)occ1O [Kojic acid] | highest | – | significant reduction in the growth of fungal hyphae |
